Assay [1] concerns the target C-C motif chemokine 2 (Homo sapiens) (UniProt P13500). The experiment in a line: Inhibition of CCL2 in human THP1 cells assessed as reduction of cell migration at 100 uM after 3 hrs. To be noted: THP-1. The assay is classed as cell-based.
For assay [2] the target is unchanged. Briefly: Inhibition of CCL2 in human THP1 cells assessed as reduction of cell migration at 50 uM after 3 hrs. The assay is classed as cell-based. The settings on record: THP-1.
Assay [3] has the same target. Briefly: Inhibition of CCL2 in human THP1 cells assessed as reduction of cell migration into TNFalpha/IFNgamma-stimulated HMEC-1 cells at 50 uM after 4 hrs. The assay is classed as cell-based. To be noted: THP-1.
Assay [4] has the same target. Briefly: Inhibition of CCL2 in human THP1 cells assessed as effect on level of ERK1/2 phosphorylation at 50 uM after 5 mins by Western blot analysis. The assay is classed as cell-based. The settings on record: THP-1. Background: Immunoblotting shows a protein as a band on a membrane.
For assay [5] the target is unchanged. The experiment in a line: Inhibition of CCL2 in human PBMC assessed as reduction of cell migration into TNFalpha/IFNgamma-stimulated HMEC-1 cells at 50 uM after 4 hrs. The assay is classed as cell-based.
Assay [6] concerns the target T1, C-C motif chemokine 5 (Homo sapiens) (UniProt P13501).
T1 sequence (whole entry): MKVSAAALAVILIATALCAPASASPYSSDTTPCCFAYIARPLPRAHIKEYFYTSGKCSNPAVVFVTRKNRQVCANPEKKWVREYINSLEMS
Briefly: Inhibition of CCL5 in human THP1 cells assessed as reduction of cell migration at 50 uM after 3 hrs. The settings on record: THP-1. The assay is classed as cell-based.

The target of assay [7] is C-C motif chemokine 7 (Homo sapiens) (UniProt P80098). Briefly: Inhibition of CCL7 in human THP1 cells assessed as reduction of cell migration at 50 uM after 3 hrs. The assay is classed as cell-based. To be noted: THP-1.
Sequence of C-C motif chemokine 7 (Homo sapiens) (P80098 whole entry): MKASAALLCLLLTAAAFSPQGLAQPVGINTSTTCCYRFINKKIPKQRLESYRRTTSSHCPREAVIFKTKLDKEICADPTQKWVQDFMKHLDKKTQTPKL
Assay [8] addresses C-C motif chemokine 2 (Homo sapiens) (UniProt P13500). The experiment in a line: Inhibition of CCL2 in human PBMC assessed as reduction of cell adhesion to VCAM1-Fc at 50 uM by flow based adhesion assay.

Active and inactive are the calls of the source. The calls are words filed in the database; no cut-off is given here.

The record followed here is ChEMBL document CHEMBL3217544, “Evaluation of two cyclic di-peptides as inhibitors of CCL2 induced chemotaxis” (Medchemcomm, 2013).

One may read the inhibition as how much of the control response was suppressed.

Sequence of C-C motif chemokine 2 (Homo sapiens) (P13500 24-99 limits assumed): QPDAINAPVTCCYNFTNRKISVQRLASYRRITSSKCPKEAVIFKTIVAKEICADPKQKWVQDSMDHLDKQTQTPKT

On to `O=C1N[C@@H](Cc2ccccc2)C(=O)N2CCC[C@@H]12`, for which the inhibition result in assay [1], in assay [2] and in assay [5] was “Active” each time. In assay [3], the inhibition was found to be 50%. Besides, the inhibition result in assay [4] was “inactive”.

With `O=C1N[C@@H](Cc2ccc(F)cc2)C(=O)N2CCC[C@@H]12`, the inhibition result in assay [1] and in assay [5] was “Active” in each case. The inhibition in assay [2] was 40%; in assay [3], 70%; in assay [8], 35%. Besides, the inhibition entry in assay [6], in assay [4] and in assay [7] was “inactive” each time.
